Results taken from patent US20240390340A1 (INCYTE CORPORATION, priority 2023, published 2024).

Test system: KRAS
Experiment: KRAS inhibition, assay not specified (at least one assay described herein)
Conditions: Peak 1 versus Peak 2 of prep. LCMS; assay not stated

SMILES	potency of the separated diastereoisomer (atropisomer) in words
C[C@@H](O)c1nc2c(F)c(-c3cccc(Cl)c3Cl)c(CCC#N)cc2c2c1cc([C@H]1C[C@H](Oc3nccs3)CN1C(=O)C1CC1)n2[C@H]1[C@H]2CN[C@@H]1C2 (single isomer, unassigned) [Example 54, Diastereomer 1 (Peak 1)]	potent
Cc1nc2c(F)c(-c3cccc(Cl)c3Cl)c(CCC#N)cc2c2c1cc([C@H]1C[C@H](OC3(C)CCC3)CN1C(=O)C1CC1)n2[C@H]1[C@H]2CN[C@@H]1C2 (single isomer, unassigned) [Example 78, Diastereomer 1 (Peak 1)]	potent
CC[C@@H]1[C@@H](Oc2cc(OC)ncc2F)C[C@H](c2cc3c([C@@H](C)O)nc4c(F)c(-c5cccc(Cl)c5Cl)c(CCC#N)cc4c3n2[C@H]2[C@H]3CN[C@@H]2C3)N1C(=O)C1CC1 (single isomer, unassigned) [Example 82, Diastereomer 1 (Peak 1)]	potent
CC(O)c1nc2c(F)c(-c3cccc(Cl)c3Cl)c(CCC#N)cc2c2c1cc([C@H]1C[C@H](OCc3ccc(F)cc3C#N)CN1C(=O)C1(C)CC1)n2[C@H]1[C@H]2CN[C@@H]1C2 (single isomer, unassigned) [Example 35, Diastereomer 1 (Peak 1)]	potent
C[C@@H](O)c1nc2c(F)c(-c3cccc(Cl)c3Cl)c(CCC#N)cc2c2c1cc([C@H]1[C@@H](F)[C@H](Oc3ccccn3)CN1C(=O)C1CC1)n2[C@H]1[C@H]2CN[C@@H]1C2 (single isomer, unassigned)	potent
COc1cc(O[C@H]2C[C@H](c3cc4c([C@@H](C)O)nc5c(F)c(-c6cccc(Cl)c6Cl)c(CCC#N)cc5c4n3[C@H]3[C@H]4CN[C@@H]3C4)N(C(=O)C3(C)CC3)[C@@H]2C)c(F)cn1 (single isomer, unassigned) [Example 52, Diastereomer 1 (Peak 1)]	potent
[2H]C([2H])([2H])O[C@H]1CC[C@@H]1O[C@H]1C[C@H](c2cc3c(C)nc4c(F)c(-c5cccc(Cl)c5Cl)c(CCC#N)cc4c3n2[C@H]2[C@H]3CN[C@@H]2C3)N(C(=O)C2CC2)C1 (single isomer, unassigned) [Example 80, Diastereomer 1 (Peak 1)]	potent
C[C@@H](O)c1nc2c(F)c(-c3cccc(Cl)c3Cl)c(CCC#N)cc2c2c1cc([C@H]1[C@H](O)[C@H](Oc3ccccn3)CN1C(=O)C1CC1)n2[C@H]1[C@H]2CN[C@@H]1C2 (single isomer, unassigned)	potent
COc1ncccc1O[C@H]1C[C@H](c2cc3c(C)nc4c(F)c(-c5cccc(Cl)c5Cl)c(CCC#N)cc4c3n2[C@H]2[C@H]3CN[C@@H]2C3)N(C(=O)C2CC2)C1 (single isomer, unassigned) [Example 1, Diastereomer 1 (Peak 1)]	potent
Cc1nc2c(F)c(-c3cccc(Cl)c3Cl)c(CCC#N)cc2c2c1cc([C@H]1C[C@H](OC(F)(F)c3ccccc3)CN1C(=O)C1CC1)n2[C@H]1[C@H]2CN[C@@H]1C2 (single isomer, unassigned) [Example 79, Diastereomer 1 (Peak 1)]	potent
Cc1cc(F)cc(O[C@H]2C[C@H](c3cc4c([C@@H](C)O)nc5c(F)c(-c6cccc(Cl)c6Cl)c(CCC#N)cc5c4n3[C@H]3[C@H]4CN[C@@H]3C4)N(C(=O)C3CC3)C2)n1 (single isomer, unassigned) [Example 62, Diastereomer 1 (Peak 1)]	potent
Cc1nc2c(F)c(-c3cccc(Cl)c3Cl)c(CCC#N)cc2c2c1cc([C@H]1C[C@](C)(OCc3ccccc3)CN1C(=O)C1CC1)n2[C@H]1[C@H]2CN[C@@H]1C2 (single isomer, unassigned) [Example 81, Diastereomer 1 (Peak 1)]	potent
COc1cc(O[C@H]2C[C@H](c3cc4c(C(C)O)nc5c(F)c(-c6cccc(Cl)c6Cl)c(CCC#N)cc5c4n3[C@H]3[C@H]4CN[C@@H]3C4)N(C(=O)C3CC3)C2)ccn1 (single isomer, unassigned) [Example 2, Diastereomer 1 (Peak 1)]	potent
C[C@@H]1[C@@H](Oc2c(F)ccnc2Cl)C[C@H](c2cc3c([C@@H](C)O)nc4c(F)c(-c5cccc(Cl)c5Cl)c(CCC#N)cc4c3n2[C@H]2[C@H]3CN[C@@H]2C3)N1C(=O)C1CC1 (single isomer, unassigned) [Example 64, Diastereomer 1 (Peak 1)]	potent
